Values of other authors, collected in paper PMC8583718, “Transient Fluorescence Labeling: Low Affinity—High Benefits” (International Journal of Molecular Sciences, 2021).
“And” between values parts separate entries of the source, which are not always exact repeats. Equal entries are not always repeated. Where two headings read alike, the source gives them in different places.

Legend:
mFAP2 = biological target: mFAP2; set-up: method as in PMID 30209393; details: mFAP2 with DFHBI; read-out: dissociation constant
[1] = biological target: dimeric transcription factors LmrR and RamR; set-up: method as in PMID 33913682; details: modified LmrR and RamR
mFAP1 = biological target: mFAP1; set-up: method as in PMID 30209393; details: mFAP1 with DFHBI; read-out: dissociation constant
Y-FAST = test system: Y-FAST; set-up: method as in PMID 26711992
DNA = biological target: DNA; set-up: method as in PMID 26423723; details: staining of DNA
UnaG = biological target: UnaG; set-up: method as in PMID 23768684; details: bilirubin–UnaG
actin structures = test system: actin structures; set-up: method as in PMID 26317264; details: compared among actin tags
F-actin [2] = biological target: F-actin; set-up: method as in PMID 18536722
G-actin = test system: G-actin; set-up: method as in PMID 18536722; details: G-actin compared with F-actin
[3] = biological target: protein–fluorogen complexes; details: UnaG system
microtubules [4] = biological target: microtubules; set-up: method as in PMID 12773533; details: interaction with microtubules
F-actin [5] = biological target: F-actin; set-up: method as in PMID 15826935; details: binding to F-actin
microtubules [6] = biological target: microtubules; set-up: method as in PMID 29662074; details: interaction with microtubules

In the case of `CC1=N/C(=C\c2cc(F)c(O)c(F)c2)C(=O)N1C` [DFHBI, 3,5-difluoro-4-hydroxybenzylidene imidazolinone], the Kd (mFAP2) is listed as 560 nM, the Dissociation constants [1] is listed as “submicromoles to several micromoles” and the Kd (mFAP1) is listed as 180 nM.

For `Cc1cc(C=C2SC(=S)NC2=O)ccc1O` [HMBR, 4-hydroxy-3-methylbenzylidene rhodanine], the “residence time in the complex” value (Y-FAST; 25 °C, HMBR–Y-FAST) is listed as 160 ms and the Kd (Y-FAST; HMBR in complex with Y-FAST) is listed as roughly 130 nM.

In the case of `CN1CCN(c2ccc3nc(-c4ccc5nc(-c6ccc(OCCCCNC(=O)c7ccc(C(=O)[O-])c(C8=C9C=CC(=[N+](C)C)C=C9[Si](C)(C)c9cc(N(C)C)ccc98)c7)cc6)[nH]c5c4)[nH]c3c2)CC1` [SiR-Hoechst], the Kd (DNA) is listed as 8400 nM.

For `C=CC1=C(C)/C(=C/c2[nH]c(Cc3[nH]c(/C=C4\NC(=O)C(C)=C4C=C)c(C)c3CCC(=O)O)c(CCC(=O)O)c2C)NC1=O` [bilirubin], the Kd (UnaG) is given as 0.098 nM.

In the case of “F-tractin: residues 10–52 of rat inositol 1,4,5-triphosphate-3-kinase A (MARPRGAGPCSPGLERAPRRSVGELRLLFEARCAAVAAAAAAG; UniProt P17105 10-52, looked up, fragment)”, the exchange rate (actin structures) is listed as “highest exchange rate among all actin tags”.

For “Lifeact: short (17 amino acids) fragment of actin filament-binding protein Abp140 from Saccharomyces cerevisiae”, the Kd (F-actin [2]; affinity to F-actin) is listed as ~2200 nM and 2200 nM, the exchange of probes (F-actin [2]; on F-actin) is listed as no more than 0.4 s and the “higher affinity to G-actin” value (G-actin) is listed as 10 fold.

B1: UnaG: fluorogen-activating protein from Japanese eel muscle that reversibly binds bilirubin (protein, UniProt P0DM59 1-139, looked up)
Bilirubin-inducible …: MVEKFVGTWKIADSHNFGEYLKAIGAPKELSDGGDATTPTLYISQKDGDKMTVKIENGPPTFLDTQVKFKLGEEFDEFPSDRRKGVKSVVNLVGEKLVYVQKWDGKETTYVREIKDGKLVVTLTMGDVVAVRSYRRATE
In the case of B1, the Kd [3] is given as 0.098 nM.

B2: MAP4: microtubule-associated protein (protein, UniProt P27816 2-1152, looked up)
Microtubule-associated …: ADLSLADALTEPSPDIEGEIKRDFIATLEAEAFDDVVGETVGKTDYIPLLDVDEKTGNSESKKKPCSETSQIEDTPSSKPTLLANGGHGVEGSDTTGSPTEFLEEKMAYQEYPNSQNWPEDTNFCFQPEQVVDPIQTDPFKMYHDDDLADLVFPSSATADTSIFAGQNDPLKDSYGMSPCNTAVVPQGWSVEALNSPHSESFVSPEAVAEPPQPTAVPLELAKEIEMASEERPPAQALEIMMGLKTTDMAPSKETEMALAKDMALATKTEVALAKDMESPTKLDVTLAKDMQPSMESDMALVKDMELPTEKEVALVKDVRWPTETDVSSAKNVVLPTETEVAPAKDVTLLKETERASPIKMDLAPSKDMGPPKENKKETERASPIKMDLAPSKDMGPPKENKIVPAKDLVLLSEIEVAQANDIISSTEISSAEKVALSSETEVALARDMTLPPETNVILTKDKALPLEAEVAPVKDMAQLPETEIAPAKDVAPSTVKEVGLLKDMSPLSETEMALGKDVTPPPETEVVLIKNVCLPPEMEVALTEDQVPALKTEAPLAKDGVLTLANNVTPAKDVPPLSETEATPVPIKDMEIAQTQKGISEDSHLESLQDVGQSAAPTFMISPETVTGTGKKCSLPAEEDSVLEKLGERKPCNSQPSELSSETSGIARPEEGRPVVSGTGNDITTPPNKELPPSPEKKTKPLATTQPAKTSTSKAKTQPTSLPKQPAPTTIGGLNKKPMSLASGLVPAAPPKRPAVASARPSILPSKDVKPKPIADAKAPEKRASPSKPASAPASRSGSKSTQTVAKTTTAAAVASTGPSSRSPSTLLPKKPTAIKTEGKPAEVKKMTAKSVPADLSRPKSTSTSSMKKTTTLSGTAPAAGVVPSRVKATPMPSRPSTTPFIDKKPTSAKPSSTTPRLSRLATNTSAPDLKNVRSKVGSTENIKHQPGGGRAKVEKKTEAAATTRKPESNAVTKTAGPIASAQKQPAGKVQIVSKKVSYSHIQSKCGSKDNIKHVPGGGNVQIQNKKVDISKVSSKCGSKANIKHKPGGGDVKIESQKLNFKEKAQAKVGSLDNVGHLPAGGAVKTEGGGSEAPLCPGPPAGEEPAISEAAPEAGAPTSASGLNGHPTLSGGGDQREAQTLDSQIQETSI
For B2, the Kd (microtubules [4]) is given as roughly 300 nM.

B3: Utr261: first 261 amino acid residues of utrophin, the filament-crosslinking protein (protein, UniProt P46939 1-261, looked up, fragment)
chain: MAKYGEHEASPDNGQNEFSDIIKSRSDEHNDVQKKTFTKWINARFSKSGKPPINDMFTDLKDGRKLLDLLEGLTGTSLPKERGSTRVHALNNVNRVLQVLHQNNVELVNIGGTDIVDGNHKLTLGLLWSIILHWQVKDVMKDVMSDLQQTNSEKILLSWVRQTTRPYSQVNVLNFTTSWTDGLAFNAVLHRHKPDLFSWDKVVKMSPIERLEHAFSKAQTYLGIEKLLDPEDVAVQLPDKKSIIMYLTSLFEVLPQQVTID
In the case of B3, the Kd (F-actin [5]) is listed as 18600 nM.

B4: MAP7: microtubule-associated protein (protein, UniProt Q14244 2-749, looked up)
Ensconsin: AELGAGGDGHRGGDGAVRSETAPDSYKVQDKKNASSRPASAISGQNNNHSGNKPDPPPVLRVDDRQRLARERREEREKQLAAREIVWLEREERARQHYEKHLEERKKRLEEQRQKEERRRAAVEEKRRQRLEEDKERHEAVVRRTMERSQKPKQKHNRWSWGGSLHGSPSIHSADPDRRSVSTMNLSKYVDPVISKRLSSSSATLLNSPDRARRLQLSPWESSVVNRLLTPTHSFLARSKSTAALSGEAASCSPIIMPYKAAHSRNSMDRPKLFVTPPEGSSRRRIIHGTASYKKERERENVLFLTSGTRRAVSPSNPKARQPARSRLWLPSKSLPHLPGTPRPTSSLPPGSVKAAPAQVRPPSPGNIRPVKREVKVEPEKKDPEKEPQKVANEPSLKGRAPLVKVEEATVEERTPAEPEVGPAAPAMAPAPASAPAPASAPAPAPVPTPAMVSAPSSTVNASASVKTSAGTTDPEEATRLLAEKRRLAREQREKEERERREQEELERQKREELAQRVAEERTTRREEESRRLEAEQAREKEEQLQRQAEERALREREEAERAQRQKEEEARVREEAERVRQEREKHFQREEQERLERKKRLEEIMKRTRRTEATDKKTSDQRNGDIAKGALTGGTEVSALPCTTNAPGNGKPVGSPHVVTSHQSKVTVESTPDLEKQPNENGVSVQNENFEEIINLPIGSKPSRLDVTNSESPEIPLNPILAFDDEGTLGPLPQVDGVQTQQTAEVI
For B4, the Kd (microtubules [6]) is given as roughly 470 nM.
